Measurements from US12173135B2, “Plasticizer and plastic product” (LARGAN MEDICAL CO., LTD., priority 2019, dated 2024).

Test: biodegradation tests (ASTM 5338) of the plasticizers
Method: The biodegradation tests (ASTM 5338) of the plasticizers with different molecular structures are performed below. The comparison, the 29th Example and the 30th Example are tested, and the degrees of degradation under different days are listed in the following table.

## O=C(OCCOC(=O)c1ccccc1O)c1ccccc1O [30th Example]
Day 0
  Degree of Degradation (%): 0%
Day 3
  Degree of Degradation (%): 3.21%
Day 7
  Degree of Degradation (%): 1.97%
Day 12
  Degree of Degradation (%): 1.09%
Day 15
  Degree of Degradation (%): 1.87%
Day 19
  Degree of Degradation (%): 4.13%
Day 24
  Degree of Degradation (%): 6.63%
Day 28
  Degree of Degradation (%): 13.13%
Day 33
  Degree of Degradation (%): 17.63%
Day 36
  Degree of Degradation (%): 26.70%
Day 40
  Degree of Degradation (%): 33.47%
Day 45
  Degree of Degradation (%): 38.10%
Day 49
  Degree of Degradation (%): 43.93%
Day 54
  Degree of Degradation (%): 47.28%
Day 58
  Degree of Degradation (%): 60.14%
Day 63
  Degree of Degradation (%): 67.90%
Day 67
  Degree of Degradation (%): 69.50%
Day 71
  Degree of Degradation (%): 71.37%
Day 75
  Degree of Degradation (%): 72.99%
Day 81
  Degree of Degradation (%): 73.19%
Day 85
  Degree of Degradation (%): 73.19%
Day 89
  Degree of Degradation (%): 73.53%
Day 93
  Degree of Degradation (%): 78.89%
Day 98
  Degree of Degradation (%): 78.51%
Day 102
  Degree of Degradation (%): 78.14%
Day 105
  Degree of Degradation (%): 78.50%
Day 109
  Degree of Degradation (%): 81.63%
Day 114
  Degree of Degradation (%): 81.09%
Day 118
  Degree of Degradation (%): 84.55%
Day 124
  Degree of Degradation (%): 84.55%
Day 128
  Degree of Degradation (%): 86.04%
Day 132
  Degree of Degradation (%): 86.55%
Day 137
  Degree of Degradation (%): 86.81%
Day 140
  Degree of Degradation (%): 86.58%
Day 144
  Degree of Degradation (%): 86.58%
Day 147
  Degree of Degradation (%): 87.69%
Day 151
  Degree of Degradation (%): 88.54%
Day 155
  Degree of Degradation (%): 88.54%
Day 158
  Degree of Degradation (%): 87.80%
Day 161
  Degree of Degradation (%): 87.80%
Day 165
  Degree of Degradation (%): 87.80%
Day 168
  Degree of Degradation (%): 88.40%
Day 172
  Degree of Degradation (%): 89.55%
Day 175
  Degree of Degradation (%): 89.91%
Day 179
  Degree of Degradation (%): 91.46%

## CCCCCCCCOC(=O)CC(N)C(=O)OCCCCCCCC (racemic) [29th Example]
Day 0
  Degree of Degradation (%): 0%
Day 3
  Degree of Degradation (%): 6.70%
Day 7
  Degree of Degradation (%): 8.53%
Day 12
  Degree of Degradation (%): 20.53%
Day 15
  Degree of Degradation (%): 26.53%
Day 19
  Degree of Degradation (%): 35.22%
Day 24
  Degree of Degradation (%): 44.08%
Day 28
  Degree of Degradation (%): 48.75%
Day 33
  Degree of Degradation (%): 51.62%
Day 36
  Degree of Degradation (%): 53.72%
Day 40
  Degree of Degradation (%): 55.78%
Day 45
  Degree of Degradation (%): 57.19%
Day 49
  Degree of Degradation (%): 58.41%
Day 54
  Degree of Degradation (%): 59.35%
Day 58
  Degree of Degradation (%): 59.61%
Day 63
  Degree of Degradation (%): 59.85%
Day 67
  Degree of Degradation (%): 60.34%
Day 71
  Degree of Degradation (%): 62.58%
Day 75
  Degree of Degradation (%): 63.96%
Day 81
  Degree of Degradation (%): 63.75%
Day 85
  Degree of Degradation (%): 62.72%
Day 89
  Degree of Degradation (%): 64.14%
Day 93
  Degree of Degradation (%): 65.04%
Day 98
  Degree of Degradation (%): 65.04%
Day 102
  Degree of Degradation (%): 66.44%
Day 105
  Degree of Degradation (%): 66.44%
Day 109
  Degree of Degradation (%): 66.25%
Day 114
  Degree of Degradation (%): 66.04%
Day 118
  Degree of Degradation (%): 66.80%
Day 124
  Degree of Degradation (%): 66.80%
Day 128
  Degree of Degradation (%): 67.01%
Day 132
  Degree of Degradation (%): 66.81%
Day 137
  Degree of Degradation (%): 66.81%
Day 140
  Degree of Degradation (%): 66.81%
Day 144
  Degree of Degradation (%): 66.01%
Day 147
  Degree of Degradation (%): 64.81%
Day 151
  Degree of Degradation (%): 64.62%
Day 155
  Degree of Degradation (%): 64.23%
Day 158
  Degree of Degradation (%): 65.50%
Day 161
  Degree of Degradation (%): 66.30%
Day 165
  Degree of Degradation (%): 66.92%
Day 168
  Degree of Degradation (%): 65.84%
Day 172
  Degree of Degradation (%): 67.51%
Day 175
  Degree of Degradation (%): 69.97%
Day 179
  Degree of Degradation (%): 71.93%
